Results published in article PMC10584170, “Machine learning-based phenotypic imaging to characterise the targetable biology of Plasmodium falciparum male gametocytes for the development of transmission-blocking antimalarials” (PLOS Pathogens, 2023).
Where two headings read alike, the source gives them in different places.

Tests used:
[1] = test system: P. falciparum male gametocytes; assay: P. falciparum Dual Gamete Formation Assay (PfDGFA), male readout (exflagellation); assay type: cell-based, Plasmodium falciparum NF54; settings: for Selectivity Ratio M: HepG2 Tox50 versus male IC50; for inhibition at 2 µM / IC50: Plasmodium falciparum; for inhibition at 2 µM: 24h preincubation with gametocytes; for IC50: PfDGFA, 24 h incubation with gametocytes before induction, exflagellation readout, read-out: Male IC50; for Activity: hit = >50% inhibition in male or female readout in at least 3 replicates, 0 = no class assigned
Procedure, shortened: (§1)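 Mature NF54 gametocytes (day 14) were incubated with compound for 24 h at 37°C under 1% O2/3% CO2, then triggered with xanthurenic acid ookinete medium plus Cy3-anti-Pfs25. Exflagellation was imaged by brightfield; after a further 24 h at 28°C, Pfs25-positive female gametes were imaged by fluorescence and counted by automated image analysis.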

[2] = test system: P. falciparum female gametocytes; assay: P. falciparum Dual Gamete Formation Assay (PfDGFA), female readout (Pfs25-positive female gametes); assay type: cell-based, Plasmodium falciparum NF54; settings: for Selectivity ratio F: HepG2 Tox50 versus female IC50; for inhibition at 2 µM / IC50: Plasmodium falciparum; for inhibition at 2 µM: 24h preincubation with gametocytes; for IC50: PfDGFA, 24 h incubation with gametocytes before induction, female gamete readout, read-out: Female IC50
Procedure, shortened: as §1

[3] = 2µM, average of replicates, read-out: Average inhibition male (%)
[4] = 2µM, replicate R1, read-out: % inhibition male (individual replicates) R1
[5] = 2µM, replicate R2, read-out: % inhibition male (individual replicates) R2
[6] = 2µM, replicate R3, read-out: % inhibition male (individual replicates) R3
[7] = 2µM, replicate R4, read-out: % inhibition male (individual replicates) R4
[8] = 2µM, average of replicates, read-out: Average inhibition female (%)
[9] = 2µM, replicate R1, read-out: % inhibition female (individual replicates) R1
[10] = 2µM, replicate R2, read-out: % inhibition female (individual replicates) R2
[11] = 2µM, replicate R3, read-out: % inhibition female (individual replicates) R3
[12] = 2µM, replicate R4, read-out: % inhibition female (individual replicates) R4
[13] = 2µM, 24h preincubation with gametocytes prior to induction of gametogenesis, average of replicates
[14] = 2µM, 24h preincubation with gametocytes prior to induction of gametogenesis, replicate R1
[15] = 2µM, 24h preincubation with gametocytes prior to induction of gametogenesis, replicate R4
[16] = 2µM, 24h preincubation, number of replicates with >50% inhibition in the male readout
[17] = 2µM, 24h preincubation with gametocytes prior to induction of gametogenesis, replicate R3
[18] = 2µM, 24h preincubation, number of replicates with >50% inhibition in the female readout
[19] = PfDGFA at 2µM, 24h preincubation with gametocytes prior to induction of gametogenesis, replicate R1
[20] = PfDGFA at 2µM, 24h preincubation with gametocytes prior to induction of gametogenesis, replicate R3
[21] = PfDGFA at 2µM, 24h preincubation with gametocytes prior to induction of gametogenesis, replicate R4
[22] = PfDGFA at 2µM, 24h preincubation, average of replicates
[23] = 2µM, 24h preincubation, hits selected on >50% inhibition in the male readout across replicates
[24] = PfDGFA at 2µM, 24h preincubation
[25] = 2µM, 24h preincubation, hits selected on >50% inhibition in the female readout across replicates

SMILES	Average inhibition male (%) [1, 13]	% inhibition male (individual replicates) R1 [1, 14]	% inhibition male (individual replicates) R4 [1, 15]	HitlevelM [1, 16]	Average inhibition female (%) [2, 13]	% inhibition female (individual replicates) R1 [2, 14]	% inhibition female (individual replicates) R3 [2, 17]	% inhibition female (individual replicates) R4 [2, 15]	HitlevelF [2, 18]	% inhibition male (individual replicates) R3 [1, 17]	other results
CCCCNS(=O)(=O)c1ccc(NC(=O)c2cc([N+](=O)[O-])ccc2Cl)cc1 [TCMDC-124345]											Selectivity Ratio M [1]: 267.48; inhibition at 2 µM [1, 3]: 100%; inhibition at 2 µM [1, 4]: 101%; inhibition at 2 µM [1, 5]: 102%; inhibition at 2 µM [1, 6]: 100%; inhibition at 2 µM [1, 7]: 98.2%; IC50 [1]: 0.37 µM; Selectivity ratio F [2]: 13.22; inhibition at 2 µM [2, 8]: 20%; inhibition at 2 µM [2, 9]: 27.9%; inhibition at 2 µM [2, 10]: 30.3%; inhibition at 2 µM [2, 11]: 6.6%; inhibition at 2 µM [2, 12]: 15%; IC50 [2]: 7.56 µM
O=C(NCC1CCN(CCN2CCC(c3cn(CCO)c4ccccc34)CC2)CC1)c1ccc(-c2ccc(C(F)(F)F)cc2)cc1 [TCMDC-138856]	42.1%	32.1%	39.5%	1	23.9%	24.2%	27.5%	18.4%	0		
CC(C)(C)Nc1cc(C2CC2)nc(-c2ccccn2)n1 [TCMDC-124453]	8.7%	15.7%	17.6%	0	32.5%	36.3%	27.2%	34.1%	0	8.7%	
Cl.Nc1nc(N)c2c(ccc3nn(S(=O)(=O)N4CCCC4)cc32)n1 [TCMDC-137854]											% inhibition male (individual replicates) R1 [1, 19]: 39.1%; % inhibition male (individual replicates) R3 [1, 20]: 32.8%; % inhibition male (individual replicates) R4 [1, 21]: 30.1%; Average inhibition male (%) [1, 22]: 33.2%; % inhibition female (individual replicates) R1 [2, 19]: -6.1%; % inhibition female (individual replicates) R3 [2, 20]: 12.6%; % inhibition female (individual replicates) R4 [2, 21]: -10.2%; Average inhibition female (%) [2, 22]: -1.3%
Cc1cccc2nc(-c3ccc(-c4cccc(CN5CCC(CCN6CCCCC6)CC5)c4)s3)[nH]c12.O=C(O)C(F)(F)F [TCMDC-133923]	52.7%	48.5%	89.6%	2	32.1%	30.9%	27.4%	27.6%	0	59.9%	
O=C(O)C(F)(F)F.O=S(=O)(NCCN1CCCC1)c1cccc(-c2ccc(CNC3Cc4ccccc4C3)cc2)c1 [TCMDC-132241]	-1.0%	15.7%	-2.5%		16.9%	23.8%	3.4%	2.0%		-7.3%	HitlevelM [1, 23]: 0; Activity [1, 24]: 0; HitlevelF [2, 25]: 0
COc1cc(Cc2cnc(N)nc2N)cc(OCCCCC2SC(=O)NC2=O)c1Br (centres unmarked) [TCMDC-137240]											% inhibition male (individual replicates) R1 [1, 19]: 22.0%; % inhibition male (individual replicates) R3 [1, 20]: 3.4%; % inhibition male (individual replicates) R4 [1, 21]: -19.8%; Average inhibition male (%) [1, 22]: 3.4%; % inhibition female (individual replicates) R1 [2, 19]: 12.9%; % inhibition female (individual replicates) R3 [2, 20]: 1.7%; % inhibition female (individual replicates) R4 [2, 21]: -5.0%; Average inhibition female (%) [2, 22]: 2.6%
NC(=O)c1ccsc1NC(=O)CNC(c1ccccc1)c1ccc(Cl)cc1 (centres unmarked) [TCMDC-125330]											% inhibition male (individual replicates) R1 [1, 19]: -5.4%; % inhibition male (individual replicates) R3 [1, 20]: -28.2%; % inhibition male (individual replicates) R4 [1, 21]: -28.5%; Average inhibition male (%) [1, 22]: -19.7%; % inhibition female (individual replicates) R1 [2, 19]: 0.32%; % inhibition female (individual replicates) R3 [2, 20]: -9.3%; % inhibition female (individual replicates) R4 [2, 21]: 6.9%; Average inhibition female (%) [2, 22]: 1.5%
CN(C)CCN(C)Cc1ccc(-c2ccc3c(Nc4ccc(F)cc4Cl)ccnc3c2)o1 [TCMDC-138447]	33.6%	23.0%	53.6%	2	19.6%	22.4%	-11.7%	48.1%	0	-2.6%	
O=C(Cc1cccc(O)c1)NCC(Cc1ccc(O)cc1)c1ccccc1 (centres unmarked) [TCMDC-138482]											Selectivity Ratio M [1]: 58.17; inhibition at 2 µM [1, 3]: 97.3%; inhibition at 2 µM [1, 4]: 97.5%; inhibition at 2 µM [1, 5]: 95.7%; inhibition at 2 µM [1, 6]: 95.7%; inhibition at 2 µM [1, 7]: 100%; IC50 [1]: 1.72 µM; Selectivity ratio F [2]: 10; inhibition at 2 µM [2, 8]: 28.1%; inhibition at 2 µM [2, 9]: 32.7%; inhibition at 2 µM [2, 10]: 38.2%; inhibition at 2 µM [2, 11]: 28.5%; inhibition at 2 µM [2, 12]: 13.2%; IC50 [2]: > 10 µM
CS(=O)(=O)Cc1cccc(Nc2ncc(Cl)c(Nc3cccnc3C(N)=O)n2)c1.Cl [TCMDC-134166]											% inhibition male (individual replicates) R1 [1, 19]: 26.3%; % inhibition male (individual replicates) R3 [1, 20]: 45.1%; % inhibition male (individual replicates) R4 [1, 21]: 42.9%; Average inhibition male (%) [1, 22]: 37.5%; % inhibition female (individual replicates) R1 [2, 19]: 12.6%; % inhibition female (individual replicates) R3 [2, 20]: -16.8%; % inhibition female (individual replicates) R4 [2, 21]: 3.4%; Average inhibition female (%) [2, 22]: 1.1%
CN1CCN(Cc2nc(-c3ccc4c(Nc5ccc(Oc6ccccc6)cc5)ccnc4c3)cs2)CC1 [TCMDC-138409]	49.4%	33.1%	56.9%		17.5%	9.4%	19.5%	18.6%		19.5%	HitlevelM [1, 23]: 2; Activity [1, 24]: 0; HitlevelF [2, 25]: 0
Clc1ccc(CNCCCCCCNCc2ccc(Cl)cc2)cc1.O=C(O)c1ccc2ccccc2c1O [TCMDC-137500]	60.2%	69.1%	76.2%	3	9.2%	13.6%	-5.3%	22.1%	0	26.6%	
CCc1ccccc1-c1csc(C(=O)NCC2CCN(Cc3ccc(C(C)(C)C)cc3)C2)c1.O=C(O)C(F)(F)F (centres unmarked) [TCMDC-134448]	-3.3%	5.2%	-8.5%	0	31.2%	30.8%	36.1%	25.0%	0	-15.7%	
COc1ccc(CNC2CCN(C)CC2)cc1-c1ccc(S(=O)(=O)NC2CCC2)cc1.O=C(O)C(F)(F)F [TCMDC-132245]	51.4%	59.0%	60.2%	3	10.6%	7.8%	-17.0%	30.9%	0	27.2%	
COc1ccc(COc2cc(NCCCN)nc3ccccc23)cc1 [TCMDC-139286]	30.7%	52.7%	44.0%	1	19.5%	25.0%	18.0%	26.8%	0	36.6%	
